In patent US12281225B2, “Process for preparing stable polymers containing vinylimidazole” (BASF SE, priority 2018, dated 2025):

Legend:
[1] = Analysis of active substance: preservative concentration before and after storage in VI-containing polymer solution; format: physicochemical; details: for active-substance concentration, 0 d, RT: before storage; for active-substance concentration, 14 d, 40° C.: storage 14 d at 40° C.; for active-substance concentration, 28 d, 40° C.: storage 28 d at 40° C.; for active-substance concentration, 60 d 40° C.: storage 60 d at 40° C.
In short: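 Preservatives (MIT, BIT, CMIT, OIT, DCOIT, iodopropynyl butyl carbamate) in aqueous vinylpyrrolidone–vinylimidazole copolymer solution quantified after dilution by isocratic RP18 chromatography with UV detection, using an acid-methanol eluent.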

[2] = Iodine color number according to DIN 6162:2014-09; format: physicochemical
[3] = test system: Bacteria: Escherichia coli, Staphylococcus aureus, Pseudomonas aeruginosa, Pseudomonas putida, Burkholderia cepacia, Alcaligenes faecalis; experiment: Preservation test with periodic inoculation, bacteria assessment; format: cell-based; details: for Start sample measurement, bact. assess., 4th inoculation: freshly formulated; for 60 d 40° C., bact. assess., 4th inoculation: sample stored 60 d at 40° C.
In short: (§1)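 Semiquantitative growth scores (−− no growth to ++ strong growth) from weekly agar streaks incubated 3 days at 25 °C. Preserved polymer samples got four weekly 0.5 ml inoculations (titer 10^9 organisms/ml), the first two days after preservative addition; testing began fresh and after 60-day storage at 40 °C.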

[4] = test system: Yeast: Candida albicans, Candida valida, Rhodotorula rura, Saccharomyces cerevisiae; experiment: Preservation test with periodic inoculation, yeast assessment; format: cell-based; details: for 60 d 40° C., yeast assess., 4th inoculation: sample stored 60 d at 40° C.; for Start sample measurement, yeast assess., 4th inoculation: freshly formulated
In short: as §1

[5] = Polymer P5 (HP56) with stabilizer

**Q.** Which results are given for `O=c1[nH]sc2ccccc12` [BIT, 1,2-benzisothiazolin-3-one]?
**A.** active-substance concentration, 0 d, RT ([1]; in Polymer P1): 150 ppm; active-substance concentration, 14 d, 40° C. ([1]; in Polymer P1): 101 ppm; active-substance concentration, 28 d, 40° C. ([1]; in Polymer P1): 85 ppm; active-substance concentration, 60 d 40° C. ([1]; in Polymer P1): 69 ppm; active-substance concentration, 0 d, RT ([1]; in Polymer P2): 150 ppm; active-substance concentration, 14 d, 40° C. ([1]; in Polymer P2): 112 ppm; active-substance concentration, 28 d, 40° C. ([1]; in Polymer P2): 93 ppm; active-substance concentration, 60 d 40° C. ([1]; in Polymer P2): 80 ppm; active-substance concentration, 0 d, RT ([1]; in Polymer P3): 150 ppm; active-substance concentration, 14 d, 40° C. ([1]; in Polymer P3): 119 ppm; active-substance concentration, 28 d, 40° C. ([1]; in Polymer P3): 99 ppm; active-substance concentration, 60 d 40° C. ([1]; in Polymer P3): 80 ppm; active-substance concentration, 0 d, RT ([1]; in Polymer P4): 150 ppm; active-substance concentration, 14 d, 40° C. ([1]; in Polymer P4): 117 ppm; active-substance concentration, 28 d, 40° C. ([1]; in Polymer P4): 93 ppm; active-substance concentration, 60 d 40° C. ([1]; in Polymer P4): 82 ppm; active-substance concentration, 0 d, RT ([1]; in Polymer P5 (HP56)): 150 ppm; active-substance concentration, 14 d, 40° C. ([1]; in Polymer P5 (HP56)): 101 ppm; active-substance concentration, 28 d, 40° C. ([1]; in Polymer P5 (HP56)): 85 ppm; active-substance concentration, 60 d 40° C. ([1]; in Polymer P5 (HP56)): 69 ppm; active-substance concentration, 0 d, RT ([1]; in Polymer P6): 150 ppm; active-substance concentration, 14 d, 40° C. ([1]; in Polymer P6): 99 ppm; active-substance concentration, 28 d, 40° C. ([1]; in Polymer P6): 83 ppm; active-substance concentration, 60 d 40° C. ([1]; in Polymer P6): 66 ppm; active-substance concentration, 0 d, RT ([1]; in Polymer P7): 150 ppm; active-substance concentration, 14 d, 40° C. ([1]; in Polymer P7): 105 ppm; active-substance concentration, 28 d, 40° C. ([1]; in Polymer P7): 88 ppm; active-substance concentration, 60 d 40° C. ([1]; in Polymer P7): 72 ppm; active-substance concentration, 0 d, RT ([1]; in Polymer P8): 150 ppm; active-substance concentration, 14 d, 40° C. ([1]; in Polymer P8): 101 ppm; active-substance concentration, 28 d, 40° C. ([1]; in Polymer P8): 85 ppm; active-substance concentration, 60 d 40° C. ([1]; in Polymer P8): 69 ppm; active-substance concentration, 0 d, RT ([1]; in Polymer P9): 150 ppm; active-substance concentration, 14 d, 40° C. ([1]; in Polymer P9): 97 ppm; active-substance concentration, 28 d, 40° C. ([1]; in Polymer P9): 78 ppm; active-substance concentration, 60 d 40° C. ([1]; in Polymer P9): 60 ppm; Iodine color number, 60 d 40° C. ([2]; Polymer P1 with stabilizer): 6.0; Iodine color number, start ([2]; Polymer P1 with stabilizer): 2.6; Iodine color number, 60 d 40° C. ([2]; Polymer P2 with stabilizer): 7.1; Iodine color number, start ([2]; Polymer P2 with stabilizer): 2.9; Iodine color number, 60 d 40° C. ([2]; Polymer P3 with stabilizer): 9.3; Iodine color number, start ([2]; Polymer P3 with stabilizer): 3.4; Iodine color number, 60 d 40° C. ([2]; Polymer P4 with stabilizer): 9.2; Iodine color number, start ([2]; Polymer P4 with stabilizer): 3.4; Iodine color number, 60 d 40° C. [2, 5]: 10.4; Iodine color number, start [2, 5]: 3.6; Iodine color number, 60 d 40° C. ([2]; Polymer P6 with stabilizer): 10.0; Iodine color number, start ([2]; Polymer P6 with stabilizer): 3.6; Iodine color number, 60 d 40° C. ([2]; Polymer P7 with stabilizer): 10.0; Iodine color number, start ([2]; Polymer P7 with stabilizer): 3.6; Iodine color number, 60 d 40° C. ([2]; Polymer P8 with stabilizer): 10.4; Iodine color number, start ([2]; Polymer P8 with stabilizer): 3.4; Iodine color number, 60 d 40° C. ([2]; Polymer P9 with stabilizer): 12.8; Iodine color number, start ([2]; Polymer P9 with stabilizer): 4.0; Start sample measurement, bact. assess., 4th inoculation ([3]; Polymer P1): − (slight growth, max. 100 colonies); 60 d 40° C., bact. assess., 4th inoculation ([3]; Polymer P1): +; Start sample measurement, bact. assess., 4th inoculation ([3]; Polymer P2): − (slight growth, max. 100 colonies); 60 d 40° C., bact. assess., 4th inoculation ([3]; Polymer P2): ++; Start sample measurement, bact. assess., 4th inoculation ([3]; Polymer P3): − (slight growth, max. 100 colonies); 60 d 40° C., bact. assess., 4th inoculation ([3]; Polymer P3): ++; 60 d 40° C., bact. assess., 4th inoculation ([3]; Polymer P4): +; 60 d 40° C., bact. assess., 4th inoculation ([3]; Polymer P5 (HP56)): ++; 60 d 40° C., bact. assess., 4th inoculation ([3]; Polymer P6): +; 60 d 40° C., bact. assess., 4th inoculation ([3]; Polymer P7): ++; Start sample measurement, bact. assess., 4th inoculation ([3]; Polymer P8): − (slight growth, max. 100 colonies); 60 d 40° C., bact. assess., 4th inoculation ([3]; Polymer P8): +; 60 d 40° C., bact. assess., 4th inoculation ([3]; Polymer P9): ++; 60 d 40° C., yeast assess., 4th inoculation ([4]; Polymer P1): +; 60 d 40° C., yeast assess., 4th inoculation ([4]; Polymer P2): ++; Start sample measurement, yeast assess., 4th inoculation ([4]; Polymer P3): − (slight growth, max. 100 colonies); 60 d 40° C., yeast assess., 4th inoculation ([4]; Polymer P3): ++; Start sample measurement, yeast assess., 4th inoculation ([4]; Polymer P4): − (slight growth, max. 100 colonies); 60 d 40° C., yeast assess., 4th inoculation ([4]; Polymer P4): ++; Start sample measurement, yeast assess., 4th inoculation ([4]; Polymer P5 (HP56)): − (slight growth, max. 100 colonies); 60 d 40° C., yeast assess., 4th inoculation ([4]; Polymer P5 (HP56)): ++; Start sample measurement, yeast assess., 4th inoculation ([4]; Polymer P6): − (slight growth, max. 100 colonies); 60 d 40° C., yeast assess., 4th inoculation ([4]; Polymer P6): ++; Start sample measurement, yeast assess., 4th inoculation ([4]; Polymer P7): − (slight growth, max. 100 colonies); 60 d 40° C., yeast assess., 4th inoculation ([4]; Polymer P7): ++; 60 d 40° C., yeast assess., 4th inoculation ([4]; Polymer P8): +; Start sample measurement, yeast assess., 4th inoculation ([4]; Polymer P9): − (slight growth, max. 100 colonies); 60 d 40° C., yeast assess., 4th inoculation ([4]; Polymer P9): ++
